Reference: patent publication US8575359B2, “Acid-sensitive linkers for drug delivery” (The Regents of the University of California, priority 2006, dated 2013)
Like-named read-outs stand apart in the source and are kept apart here.

Tested on: human ovarian carcinoma 2008 cells
Assay: Cytotoxicity (colony formation assay) on human ovarian carcinoma 2008 cells
Type: cell-based
Experimental: Cells were exposed to various concentrations of 10 for 1 hour and survival was determined after a further […] period of growth in drug-free medium.
Human ovarian carcinoma 2008 cells were plated in 6-well plates at a density of 200 cells in 3 mL of media (RPMI-1640+10% Fetal Bovine Serum) per well and incubated overnight to allow the cells to adhere to the bottom of the wells. After overnight incubation the media was removed from each well and fresh growth media containing different concentrations of 10 was added to the wells. The cells were incubated for 1 hour in the presence of 10. Following the removal of the solutions containing 10, the cells were incubated with fresh media for […] to allow surviving cells to form colonies. […] Clusters containing >50 cells were scored as colonies using an AlphaInontech Imager. The colony formation assay was performed in triplicate on 3 independent occasions.
Chem. Int. Ed. 2004, 43, 739-742. Norrisolide Core (5, 11 μmol) was dissolved in 0.5 mL of dichloromethane (DCM). 4-carboxybenzaldehye (19 μmol), N,N′-dicyclohexylcarbodiimide (DCC, 19 μmol) and Dimethylaminopyridine (DMAP, 1 crystal) was added and stirred overnight at 23° C.

[1] = Table 3, human ovarian carcinoma 2008 cells, read-out: IC50
[2] = human ovarian carcinoma 2008 cells, relative to compound 10

Molecule: CCOC(c1ccccc1)n1ccnc1 (stereo not drawn) [Compound 1, N-ethoxybenzylimidazole]
- IC50 [1]: 0.01 µM

Molecule: CCOC(c1ccc(Br)cc1)n1ccnc1 (stereo not drawn) [Compound 2]
- IC50 [1]: 9 µM

Molecule: CCOC(c1ccc([N+](=O)[O-])cc1)n1ccnc1 (stereo not drawn) [Compound 3]
- IC50 [1]: 0.1 µM

Molecule: CCCCc1ccc(C(OCC)n2ccnc2)cc1 (stereo not drawn) [Compound 4]
- IC50 [1]: 0.25 µM

Molecule: CCOC(c1ccccc1Br)n1ccnc1 (stereo not drawn) [Compound 5]
- IC50 [1]: 52 µM

Molecule: CCOC(c1ccccc1OC)n1ccnc1 (stereo not drawn) [Compound 6]
- IC50 [1]: 55 µM

Molecule: COc1cccc2c1C(=O)c1c(O)c3c(c(O)c1C2=O)C[C@@](O)(C(=O)CO)C[C@@H]3O[C@H]1C[C@H](NC(=O)c2ccc(C=O)cc2)[C@H](O)[C@H](C)O1 [Compound 10, N-(4-formylbenzoyl)doxorubicin]
- IC50 (1 hour exposure, colony formation, read-out: IC50 against human ovarian carcinoma 2008 cells): ~12 µM

Molecule: COc1cccc2c1C(=O)c1c(O)c3c(c(O)c1C2=O)C[C@@](O)(C(=O)CO)C[C@@H]3O[C@H]1C[C@H](N)[C@H](O)[C@H](C)O1 [doxorubicin, Doxorubicin, reference compound]
- IC50 fold lower than that of 10 [2]: > 10 fold

Molecule: N-ethoxybenzylimidazole-doxorubicin Conjugate [Compound 9]
- IC50 fold higher than that of 10 [2]: 2 fold
